Laboratory results taken from PubChem BioAssay AID330 (DTP/NCI, 2004).
“And” between values parts separate entries of the source, which are not always exact repeats. Identical values can stand only once. Inconclusive results and toxic doses are left out.

System: P388 leukemia ip, CD2F1 mice, survival T/C
Experiment: NCI In Vivo Anticancer Drug Screen. Data for tumor model P388 Leukemia (intraperitoneal) in CD2F1 (CDF1) mice
Conditions: endpoint: median survival time, higher = longer survival
Procedure, shortened: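 Mice carrying the transplanted tumor received test compound or vehicle. Survival was recorded in each group, and the value is the treated-group measurement divided by that of the vehicle-treated control group.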

[1] = dose: 50.0 mg/kg/injection, schedule: Q01DX005 (ip), vehicle: saline with Tween-80
[2] = dose: 100.0 mg/kg/injection, schedule: Q01DX005 (ip), vehicle: saline with Tween-80
[3] = dose: 200.0 mg/kg/injection, schedule: Q01DX005 (ip), vehicle: saline with Tween-80
[4] = dose: 50.0 mg/kg/injection, schedule: Q01DX009 (ip), vehicle: saline with Tween-80
[5] = dose: 100.0 mg/kg/injection, schedule: Q01DX009 (ip), vehicle: saline with Tween-80
[6] = dose: 200.0 mg/kg/injection, schedule: Q01DX009 (ip), vehicle: saline with Tween-80
[7] = dose: 50.0 mg/kg/injection, schedule: Q01DX005 (ip), vehicle: Klucel (hydroxypropylcellulose) (HPC)
[8] = dose: 100.0 mg/kg/injection, schedule: Q01DX005 (ip), vehicle: Klucel (hydroxypropylcellulose) (HPC)
[9] = dose: 200.0 mg/kg/injection, schedule: Q01DX005 (ip), vehicle: Klucel (hydroxypropylcellulose) (HPC)
[10] = dose: 12.5 mg/kg/injection, schedule: Q01DX009 (ip), vehicle: saline

Compound: O=C1CSc2nc3c(Cl)cc(Cl)cc3c(=O)n21
- T/C [1]: 108 % of control
- T/C [2]: 100 % of control
- T/C [3]: 105 % of control

Compound: CCOC(=O)[C@@H](F)[C@H](Br)C(=O)OCC
- T/C [4]: 100 % of control and 110 % of control
- T/C [5]: 113 % of control and 122 % of control

Compound: C=C1CC(C)OC1=O (configuration not stated)
- T/C (dose: 100.0 mg/kg/injection, schedule: Q04DX002 (ip), vehicle: saline with Tween-80): 103 % of control
- T/C (dose: 200.0 mg/kg/injection, schedule: Q04DX002 (ip), vehicle: saline with Tween-80): 111 % of control

Compound: Cc1cc(C(F)(F)F)nc(NNc2nc(C)cc(C(F)(F)F)n2)n1
- T/C [4]: 102 % of control
- T/C [5]: 88 % of control
- T/C [6]: 88 % of control

Compound: CCOC(=O)C(=Cc1c[nH]c2ccc(Br)cc12)C(=O)OCC
- T/C [5]: 104 % of control
- T/C (dose: 100.0 mg/kg/injection, schedule: Q04DX003 (ip), vehicle: saline with Tween-80): 109 % of control
- T/C [6]: 87 % of control
- T/C (dose: 200.0 mg/kg/injection, schedule: Q04DX003 (ip), vehicle: saline with Tween-80): 109 % of control
- T/C (dose: 400.0 mg/kg/injection, schedule: Q01DX009 (ip), vehicle: saline with Tween-80): 100 % of control
- T/C (dose: 400.0 mg/kg/injection, schedule: Q04DX003 (ip), vehicle: saline with Tween-80): 100 % of control

Compound: CCCCC1(CCCCCCCCC(=O)OCC)OCCO1
- T/C [7]: 96 % of control
- T/C [8]: 97 % of control
- T/C [9]: 97 % of control

Compound: CCCCC[N+]1(CC)CCCCC1
- T/C (dose: 3.12 mg/kg/injection, schedule: Q01DX009 (ip), vehicle: saline): 104 % of control
- T/C (dose: 6.25 mg/kg/injection, schedule: Q01DX009 (ip), vehicle: saline): 106 % of control
- T/C [10]: 104 % of control

Compound: CC(C)(C=O)COC1OCN(C(C)(C)C)CC1(C)C (configuration not stated)
- T/C [4]: 104 % of control
- T/C [5]: 122 % of control

Compound: Cc1ccc2c(NCCCCCCCCNc3c4ccccc4nc4cc(C)ccc34)c3ccccc3nc2c1
- T/C (dose: 2.5 mg/kg/injection, schedule: Q01DX009 (ip), vehicle: water): 150 % of control

Compound: CCCCCCCCN=Cc1c(O)c(O)c(C(C)C)c2cc(C)c(-c3c(C)cc4c(C(C)C)c(O)c(O)c(C=NCCCCCCCC)c4c3O)c(O)c12
- T/C (dose: 25.0 mg/kg/injection, schedule: Q01DX005 (ip), vehicle: Klucel (hydroxypropylcellulose) (HPC)): 95 % of control
- T/C [7]: 98 % of control
- T/C [8]: 98 % of control
- T/C [9]: 93 % of control

Compound: Nc1nc(N)c2nc(CNc3ccc(Cl)c(Cl)c3)cnc2n1
- T/C (dose: 15.0 mg/kg/injection, schedule: Q01DX005 (ip), vehicle: saline with Tween-80): 98 % of control
- T/C (dose: 30.0 mg/kg/injection, schedule: Q01DX005 (ip), vehicle: saline with Tween-80): 89 % of control

Compound: FC(F)(c1nc2ccccc2[nH]1)C(F)(F)C(F)(F)c1nc2ccccc2[nH]1
- T/C [1]: 95 % of control
- T/C [2]: 89 % of control
- T/C [3]: 88 % of control

Compound: O=C(O)C1(N(CCO)CCO)CCCC1
- T/C (dose: 50.0 mg/kg/injection, schedule: Q01DX005 (ip), vehicle: saline): 104 % of control
- T/C (dose: 100.0 mg/kg/injection, schedule: Q01DX005 (ip), vehicle: saline): 100 % of control
- T/C (dose: 200.0 mg/kg/injection, schedule: Q01DX005 (ip), vehicle: saline): 106 % of control

Compound: Cc1cc(OC2OC(CO)C(OC3OC(CO)C(O)C(O)C3O)C(O)C2O)c2c(c1)C(=O)c1cccc(O)c1C2=O (configuration not stated)
- T/C [4]: 104 % of control
- T/C [5]: 104 % of control
- T/C [6]: 105 % of control

Compound: O=C1N2CCCC2(S)C(=O)N2CCCC12[S-].[Zn] (configuration not stated)
- T/C [10]: 95 % of control and 97 % of control
- T/C (dose: 25.0 mg/kg/injection, schedule: Q01DX009 (ip), vehicle: saline): 100 % of control and 90 % of control
- T/C (dose: 50.0 mg/kg/injection, schedule: Q01DX009 (ip), vehicle: saline): 108 % of control and 119 % of control
- T/C (dose: 100.0 mg/kg/injection, schedule: Q01DX009 (ip), vehicle: saline): 124 % of control and 95 % of control

Compound: N=C(N)SCCCCCCCCCCSC(=N)N
- T/C (dose: 12.5 mg/kg/injection, schedule: Q01DX009 (ip), vehicle: saline with Tween-80): 100 % of control and 90 % of control
- T/C (dose: 25.0 mg/kg/injection, schedule: Q01DX009 (ip), vehicle: saline with Tween-80): 98 % of control and 100 % of control
- T/C [4]: 106 % of control
